In patent US9828357B2, “Cyclic compounds” (Takeda Pharmaceutical Company Limited, priority 2015, dated 2017):

Biological target: T1, TLR4 (Mus musculus, UniProt Q9QUK6)
T1 construct: endogenous in cells; host or cells: RAW264.7 (murine macrophage cell line)
T1 sequence (Q9QUK6 26-835): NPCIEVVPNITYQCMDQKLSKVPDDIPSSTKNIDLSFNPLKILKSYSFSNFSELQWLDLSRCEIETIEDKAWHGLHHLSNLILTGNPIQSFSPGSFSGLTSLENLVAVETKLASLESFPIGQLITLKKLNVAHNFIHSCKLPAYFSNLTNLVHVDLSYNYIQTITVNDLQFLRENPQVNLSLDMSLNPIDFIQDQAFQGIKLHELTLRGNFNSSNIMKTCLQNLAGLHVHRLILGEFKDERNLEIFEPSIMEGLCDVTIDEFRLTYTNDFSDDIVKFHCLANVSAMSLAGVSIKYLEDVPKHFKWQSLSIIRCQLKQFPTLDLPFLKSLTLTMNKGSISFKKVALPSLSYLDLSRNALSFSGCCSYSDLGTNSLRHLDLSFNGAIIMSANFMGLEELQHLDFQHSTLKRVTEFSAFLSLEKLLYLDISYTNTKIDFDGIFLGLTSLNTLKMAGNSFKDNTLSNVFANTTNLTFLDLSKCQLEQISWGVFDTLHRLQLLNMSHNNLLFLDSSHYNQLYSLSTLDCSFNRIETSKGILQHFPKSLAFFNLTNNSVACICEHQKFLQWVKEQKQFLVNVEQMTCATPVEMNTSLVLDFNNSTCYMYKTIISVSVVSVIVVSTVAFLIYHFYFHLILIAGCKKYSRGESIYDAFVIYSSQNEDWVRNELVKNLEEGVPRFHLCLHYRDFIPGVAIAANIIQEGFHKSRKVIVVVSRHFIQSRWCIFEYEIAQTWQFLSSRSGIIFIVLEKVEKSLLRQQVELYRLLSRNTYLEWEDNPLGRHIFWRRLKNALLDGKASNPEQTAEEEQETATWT
T1 sequence (Q9JHF9 19-160 partner): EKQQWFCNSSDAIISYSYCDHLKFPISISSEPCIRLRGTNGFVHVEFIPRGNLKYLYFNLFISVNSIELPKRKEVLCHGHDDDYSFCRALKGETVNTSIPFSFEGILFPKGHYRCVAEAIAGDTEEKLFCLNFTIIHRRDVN
Assay: Inhibitory effect with respect to NO production (LPS/interferon γ-stimulated RAW264.7)
Format: cell-based, murine
Conditions: RAW264.7 cells, LPS 1.25 ng/mL and mouse interferon γ 0.2 ng/mL, nitrite ion in culture supernatant
Description: The inhibitory effect on TLR4 was determined using the inhibition rate due to the test compound with respect to NO production as a result of addition of lipopolysaccharide (LPS) using murine macrophage cell line RAW264.7. The cells were adjusted to 2×10^6 cells/mL using RPM1-1640 culture medium (phenol red free) supplemented with 10% inactivated bovine fetal serum, and were plated on 384 well plate so as to contain 6×10^4 cells/30 μL per well. Thereafter the cells were cultured at 37° C. overnight under 5% CO2/95% air. The test compound dissolved in DMSO was diluted 200 times using RPM1-1640 culture medium and adjusted so as to form a compound concentration of 500 nM. The prepared test compound 10 μL (final concentration 100 nM) was added to the cells, and LPS (Sigma) and mouse interferon γ (Wako Pure Chemicals) were added in amounts of 10 μL so as to form final concentrations of 1.25 ng/mL and 0.2 ng/mL respectively. The cells were further cultured overnight, and then the nitrite ion (stable NO metabolite) concentration in the culture supernatant was measured as an index of NO production. The nitrite ion concentration was assayed by adding 10 μL of 20 μg/mL 2,3-diamino naphthalene (DAN) dissolved in 0.2N HCl to 20 μL culture supernatant, incubating at room temperature for ten minutes, and then adding 10 μL of 0.5N NaOH, and measuring the fluorescent value at 460 nm (excitation wavelength 355 nm) using an EnVision plate reader (Perkin Elmer). The NO production inhibition rate (%) was calculated using the value without the addition of stimulating agent as control of 100% inhibition, and the value without the addition of the compound as control of 0% inhibition.

CCOC(=O)C1=CC(O)CCC1S(=O)(=O)C1CCc2cccc(Cl)c21 (racemic) [Compound 4, Ethyl 6-((7-chloro-2,3-dihydro-1H-inden-1-yl)sulfonyl)-3-hydroxycyclohex-1-ene-1-carboxylate]
NO production inhibitory effect at 100 nM (% inhibition) (0.1 µM): 110 % inhibition

CCOC(=O)C1=CC(O)CCC1S(=O)(=O)C1CCc2cccc(Cl)c21 (racemic) [Compound 5, Ethyl 6-((7-chloro-2,3-dihydro-1H-inden-1-yl)sulfonyl)-3-hydroxycyclohex-1-ene-1-carboxylate]
NO production inhibitory effect at 100 nM (% inhibition) (0.1 µM): 100 % inhibition

CCOC(=O)C1=CC2(CCC1S(=O)(=O)C1CCCc3cccc(Cl)c31)O[C@H](CO)[C@@H](CO)O2 (single isomer, unassigned) [Compound 16]
NO production inhibitory effect at 100 nM (% inhibition) (0.1 µM): 108 % inhibition

CCOC(=O)C1=CC2(CCC1S(=O)(=O)C1CCCc3cccc(Cl)c31)O[C@H](CO)[C@@H](CO)O2 (single isomer, unassigned) [Compound 17]
NO production inhibitory effect at 100 nM (% inhibition) (0.1 µM): 86 % inhibition

CCOC(=O)C1=CCOCC1S(=O)(=O)C1CCc2cccc(Cl)c21 (single isomer, unassigned) [Compound 20]
NO production inhibitory effect at 100 nM (% inhibition): 104 % inhibition

CCOC(=O)C1=CCCCC1S(=O)(=O)C1CCc2c(Cl)cccc21 (stereo not drawn) [Compound 1, Ethyl 6-((4-chloro-2,3-dihydro-1H-inden-1-yl)sulfonyl)cyclohex-1-ene-1-carboxylate]
NO production inhibitory effect at 100 nM (% inhibition): 96 % inhibition

CCOC(=O)C1=CC2(CCC1S(=O)(=O)C1CCc3c(Cl)cccc31)O[C@H](CO)[C@@H](CO)O2 (stereo partly drawn) [Compound 2, Ethyl (2R,3R)-8-((4-chloro-2,3-dihydro-1H-inden-1-yl)sulfonyl)-2,3-bis(hydroxymethyl)-1,4-dioxaspiro[4.5]dec-6-ene-7-carboxylate]
NO production inhibitory effect at 100 nM (% inhibition): 99 % inhibition

CCOC(=O)C1=CC2(CCC1S(=O)(=O)C1CCc3c(Cl)cccc31)O[C@@H](CO)[C@H](CO)O2 (stereo partly drawn) [Compound 3, Ethyl (2S,3S)-8-((4-chloro-2,3-dihydro-1H-inden-1-yl)sulfonyl)-2,3-bis(hydroxymethyl)-1,4-dioxaspiro[4.5]dec-6-ene-7-carboxylate]
NO production inhibitory effect at 100 nM (% inhibition): 110 % inhibition

CCOC(=O)C1=CC2(CC[C@H]1S(=O)(=O)[C@H]1CCc3cccc(Cl)c31)O[C@@H](CO)[C@H](CO)O2 [Compound 7, Ethyl (2S,3S,8R)-8-(((1S)-7-chloro-2,3-dihydro-1H-inden-1-yl)sulfonyl)-2,3-bis(hydroxymethyl)-1,4-dioxaspiro[4.5]dec-6-ene-7-carboxylate]
NO production inhibitory effect at 100 nM (% inhibition): 105 % inhibition

CC1(COC(=O)C2=CC3(CCC2S(=O)(=O)C2CCc4cccc(Cl)c42)O[C@@H](CO)[C@H](CO)O3)CC1 (stereo partly drawn) [Compound 8, (1-methylcyclopropyl)methyl (2S,3S)-8-((7-chloro-2,3-dihydro-1H-inden-1-yl)sulfonyl)-2,3-bis(hydroxymethyl)-1,4-dioxaspiro[4.5]dec-6-ene-7-carboxylate]
NO production inhibitory effect at 100 nM (% inhibition): 99 % inhibition

CCOC(=O)C1=CC2(CCC1S(=O)(=O)C1CCc3c(F)ccc(Cl)c31)O[C@@H](CO)[C@H](CO)O2 (stereo partly drawn) [Compound 9, Ethyl (2S, 3S)-8-((7-chloro-4-fluoro-2,3-dihydro-1H-inden-1-yl)sulfonyl)-2,3-bis(hydroxymethyl)-1,4-dioxaspiro[4.5]dec-6-ene-7-carboxylate]
NO production inhibitory effect at 100 nM (% inhibition): 110 % inhibition

CCOC(=O)C1=CC2(CCC1S(=O)(=O)C1CCc3ccc(F)c(Cl)c31)O[C@@H](CO)[C@H](CO)O2 (stereo partly drawn) [Compound 10, Ethyl (2S, 3S)-8-((7-chloro-6-fluoro-2,3-dihydro-1H-inden-1-yl)sulfonyl)-2,3-bis(hydroxymethyl)-1,3-dioxaspiro[4.5]dec-6-ene-7-carboxylate]
NO production inhibitory effect at 100 nM (% inhibition): 100 % inhibition

CCOC(=O)C1=CC2(CCC1S(=O)(=O)C1CCc3cc(F)cc(Br)c31)O[C@@H](CO)[C@H](CO)O2 (stereo partly drawn) [Compound 11, Ethyl (2S, 3S)-8-((7-bromo-5-fluoro-2,3-dihydro-1H-inden-1-yl)sulfonyl)-2,3-bis(hydroxymethyl)-1,4-dioxaspiro[4.5]dec-6-ene-7-carboxylate]
NO production inhibitory effect at 100 nM (% inhibition): 110 % inhibition

CCOC(=O)C1=CC2(CCC1S(=O)(=O)C1CCc3cccc(Br)c31)O[C@@H](CO)[C@H](CO)O2 (stereo partly drawn) [Compound 12, Ethyl (2S, 3S)-8-((7-bromo-2,3-dihydro-1H-inden-1-yl)sulfonyl)-2,3-bis(hydroxymethyl)-1,4-dioxaspiro[4.5]dec-6-ene-7-carboxylate]
NO production inhibitory effect at 100 nM (% inhibition): 100 % inhibition

CCOC(=O)C1=CC2(CCC1S(=O)(=O)C1CCc3cccc(C)c31)O[C@@H](CO)[C@H](CO)O2 (stereo partly drawn) [Compound 13, Ethyl (2S, 3S)-2,3-bis(hydroxymethyl)-8-((7-methyl-2,3-dihydro-1H-inden-1-yl)sulfonyl)-1,4-dioxaspiro[4.5]dec-6-ene-7-carboxylate]
NO production inhibitory effect at 100 nM (% inhibition): 100 % inhibition

CCOC(=O)C1=CC2(CC[C@H]1S(=O)(=O)[C@H]1CCc3cc(F)cc(Cl)c31)O[C@@H](CO)[C@H](CO)O2 [Compound 15, Ethyl (2S,3S,8R)-8-(((1S)-7-chloro-5-fluoro-2,3-dihydro-1H-inden-1-yl)sulfonyl)-2,3-bis(hydroxymethyl)-1,4-dioxaspiro[4.5]dec-6-ene-7-carboxylate]
NO production inhibitory effect at 100 nM (% inhibition): 106 % inhibition

CCOC(=O)C1=CCCC[C@H]1S(=O)(=O)[C@H]1CCc2cccc(Cl)c21 [Compound 18, Ethyl (6R)-6-(((1S)-7-chloro-2,3-dihydro-1H-inden-1-yl)sulfonyl)cyclohex-1-ene-1-carboxylate]
NO production inhibitory effect at 100 nM (% inhibition): 104 % inhibition

CCOC(=O)C1=CC2(CC[C@H]1S(=O)(=O)[C@H]1CCCc3cccc(Cl)c31)O[C@@H](CO)[C@H](CO)O2 [Compound 19, Ethyl (2S,3S,8R)-8-(((1S)-8-chloro-1,2,3,4-tetrahydronaphthalen-1-yl)sulfonyl)-2,3-bis(hydroxymethyl)-1,4-dioxaspiro[4.5]dec-6-ene-7-carboxylate]
NO production inhibitory effect at 100 nM (% inhibition): 107 % inhibition
